Measured values published in publication PMC8777785, “Antimicrobial Activity of Snake β-Defensins and Derived Peptides” (Toxins, 2021).
≈ marks a conversion by molar mass, not a printed value. Residues, ends and D or L forms follow the SMILES beside them.

Tests used:
[1] = test system: Staphylococcus aureus; assay: Microbroth dilution assay, MIC; format: cell-based; settings: overnight 37 °C, read at 600 nm, three independent experiments
Description: (§1) The β-defensins were tested using a microbroth dilution assay. It consists of incubating the bacteria (4.105 colony-forming unit—CFU/mL) and the peptide (from 1 to 512 µg/mL) in liquid broth. After the incubation at 37 °C during the night, the bacterial growth was detected by spectrophotometry at 600 nm. If the measure is similar to the broth, it […]. […] The β-defensins were tested against B. jararaca oral flora because it would be of biological and medical interest. In addition, we tested on E. coli ATCC 25922 and M. luteus that are common Gram-negative and Gram-positive bacteria used in antibacterial tests.
(§2) The antibacterial activity of the alkylated peptides was tested against Gram-negative (G−) bacteria (Klebsiella pneumonia, Serratia marcescens, Morganella morganii, Providencia rettgeri, Citrobacter freundii, Escherichia coli ATCC 25922 and Gram-positive (G+) bacteria (Micrococcus luteus A270 and Staphylococcus aureus) using microbroth assay. In a 96-well plate, 90 µL of 10% tryptone soy broth (TSB) with 4 × 10^5 colony-forming unit (CFU/mL) were mixed with serial twofold dilutions of β-defensins duplicate in concentrations from 512 to 1 µg/mL. The derived peptides coded as PS1, PS2, PS3, PS5, and PS6 (Table 1) were tested against these bacteria in serial twofold dilutions with concentrations bellow 700 µg/mL. After overnight incubation at 37 °C, the turbidity of the bacterial culture was read at 600 nm (Epoch microplate reader, Biotek). The minimal inhibitory concentration (MIC) of each peptide was determined as the lowest concentration that results in no visible bacterial growth. The MIC resulted from three independent experiments. The bacteria K. pneumonia, S. marcescens, M. morganii, P. rettgeri, C. freundii, M. luteus A270 and S. aureus were isolated from Bothrops jararaca buccal flora and kindly provided by Dr. Márcia R. Franzolin (Laboratory of Bacteriology—Instituto Butantan). M. luteus was kindly provided by Dr. Pedro I. da Silva Jr. (Laboratory of Applied Toxinology—Instituto Butantan).

[2] = test system: Citrobacter freundii; assay: Microbroth dilution assay, MIC; format: cell-based; settings: overnight 37 °C, read at 600 nm, three independent experiments
Description: as §1, §2

[3] = test system: Micrococcus luteus A270; assay: Microbroth dilution assay, MIC; format: cell-based; settings: overnight 37 °C, read at 600 nm, three independent experiments
Description: as §1, §2

[4] = test system: Escherichia coli ATCC 25922; assay: Microbroth dilution assay, MIC; format: cell-based; settings: overnight 37 °C, read at 600 nm, three independent experiments
Description: as §1, §2

[5] = test system: Candida albicans (IOC 4525); assay: Resazurin microtiter assay plate, antifungal MIC90; format: cell-based; settings: resazurin colour change, RPMI 1640, 1 to 250 μM, 28 °C, 24–72 h; three independent experiments
Description: (§3) The derived peptides were also tested against fungi species using the classical resazurin microtiter assay plate method. It is based on the color change of the rezazurin dye that in blue indicates the absence of growth in at least 90%, and pink refers to microorganism growth. MIC is determined as the minimal concentration of the sample that can prevent the color change from blue to pink and refers to the inhibition of 90% of microorganisms.
(§4) The antifungal activity was evaluated by the microdilution assay as previously described on clinical strains of Candida albicans (IOC 4525), Cryptococcus neoformans (IOC 4528), Trichophyton rubrum (IOC 4527) and Aspergillus fumigatus (IOC 4526). The fungi were cultivated in potato dextrose agar at 28 °C according to the Clinical and Laboratory Standards Institute recommendations. Fungal suspensions were prepared in RPMI 1640 culture media; the CFU/mL was adjusted to 0.5–2.5 × 10^3 for yeasts (C. albicans and C. neoformans) and 0.4–5 × 10^4 CFU/mL for filamentous fungi (T. rubrum e A. fumigatus), by comparison with a standard curve previously stablished in our laboratory.
(§5) The peptides PS1, PS2, PS, PS3, PS4, PS5 and PS6 at 1 mM in acetic acid at 0.01% were diluted in RPMI 1640 culture media at concentrations ranging from 1 to 250 μM. Amphotericin B (AMB) at concentrations below 15 μg/mL (16 μM) and acetic acid from 0.0002 to 0.0025% was used as control.
(§6) The fungi suspensions were added to a 96 well plate (100 µL/well) and the samples (100 µL) in different concentrations were added to each well. The plate was incubated at 28 °C for 24–72 h, and 24 h before the end of the assay 25 µL of the rezazurin dye at 0.02% were added to each well. The minimal inhibitory concentration (MIC90) was defined as the lowest concentration that prevents the rezazurin’s change in color from blue to pink due to the inhibition of at least 90% of the microorganism’s growth. The assays were performed in three independent experiments.

[6] = test system: Trichophyton rubrum (IOC 4527); assay: Resazurin microtiter assay plate, antifungal MIC90; format: cell-based; settings: resazurin colour change, RPMI 1640, 1 to 250 μM, 28 °C, 24–72 h; three independent experiments
Description: as §3, §4, §5, §6

[7] = test system: Aspergillus fumigatus (IOC 4526); assay: Resazurin microtiter assay plate, antifungal MIC90; format: cell-based; settings: resazurin colour change, RPMI 1640, 1 to 250 μM, 28 °C, 24–72 h; three independent experiments
Description: as §3, §4, §5, §6

[8] = test system: Cryptococcus neoformans (IOC 4528); assay: Resazurin microtiter assay plate, antifungal MIC90; format: cell-based; settings: resazurin colour change, RPMI 1640, 1 to 250 μM, 28 °C, 24–72 h; three independent experiments
Description: as §3, §4, §5, §6

[9] = test system: Klebsiella pneumonia; assay: Microbroth dilution assay, MIC; format: cell-based, Klebsiella pneumoniae; settings: short derived peptides, 2.75 to 700 µg/mL, overnight 37 °C, read at 600 nm, three independent experiments
Description: as §1, §2

[10] = snake β-defensins, linear (alkylated) except native crotamine, 10% TSB, 4 × 10^5 CFU/mL, 512 to 1 µg/mL
[11] = short derived peptides, 2.75 to 700 µg/mL

Compound | MIC, S. aureus [1, 10] | MIC, C. freundii [2, 10] | MIC, M. luteus [3, 10] | MIC, E. coli [4, 10] | MIC90, Candida albicans [5] | MIC90, Trichophyton rubrum [6] | MIC90, Aspergillus fumigatus [7] | MIC90, Cryptococcus neoformans [8] | MIC, S. aureus [1, 11] | MIC, C. freundii [2, 11] | MIC, M. luteus [3, 11] | MIC, E. coli [4, 11] | MIC, K. pneumoniae [9]
QRICLGGRGFCHSTPCPRSTIDYGKKDCWGSLRCCEPKRPGK [DefbPm, synthetic β-defensin deduced from P. mertensis gene, GenBank KX664436] | >109 µM | >109 µM | 6.8 µM | >109 µM | – | – | – | – | – | – | – | – | –
QPECLRQGGMCRPRLCPYVSLGQLDCQNGHVCCRKKPRK [DefbBd03, synthetic β-defensin deduced from B. diporus gene, GenBank KC117160] | >115 µM | >115 µM | 0.9 µM | >115 µM | – | – | – | – | – | – | – | – | –
N=C(N)NCCC[C@H](NC(=O)CNC(=O)[C@@H]1CCCN1C(=O)CNC(=O)[C@@H](N)CO)C(=O)N[C@@H](CCCNC(=N)N)C(=O)N[C@@H](CO)C(=O)N[C@@H](CO)C(=O)N[C@@H](CCCNC(=N)N)C(=O)N[C@@H](CCCNC(=N)N)C(=O)N[C@@H](CCCNC(=N)N)C(=O)N[C@@H](CCCCN)C(=O)O [PS3] (H-SGPGRRSSRRRK-OH) | – | – | – | – | >250 µM | >250 µM | >250 µM | >250 µM | 125 µM (≈ 175 µg/mL) | >500 µM | 31.5 µM (≈ 44.1 µg/mL) | >500 µM | >500 µM
QRRCRQRRGICRPRPCPPENFSLGRLDCQMGQMCCRRRFGK [DefbBm03, synthetic β-defensin deduced from B. mattogrossensis gene, GenBank KC117168] | >103 µM | 3.2 µM | 1.6 µM | 1.6 µM | – | – | – | – | – | – | – | – | –
Crotamine | >105 µM | 6.7 µM | 1.7 µM | 13.3 µM | – | – | – | – | – | – | – | – | –
QPECCQEGGICHSKQCPLGYSSLGRLDCQLGQRCCIRIFGK [DefbBn02, synthetic β-defensin deduced from B. neuwiedi gene, GenBank KC117169] | >113 µM | >113 µM | >113 µM | >113 µM | – | – | – | – | – | – | – | – | –
QDLCHNLGGRCFRNRCSWSLRNHGGQDCPWGSVCCKP [DefbTs, synthetic β-defensin deduced from T. strigatus gene, GenBank KX664429] | >122 µM | >122 µM | 15.3 µM | >122 µM | – | – | – | – | – | – | – | – | –
QGQCHQQRGRCFLHQCPLSHYFLGRLDCGPGRRCCRRRK [DefbLm02, synthetic β-defensin deduced from L. muta gene, GenBank KC117172] | 6.8 µM | 3.4 µM | 0.9 µM | 3.4 µM | – | – | – | – | – | – | – | – | –
QEWCRGLGGFCSFYQCRPGHDLGPQDCWPERRCCRWGK [DefbLm01, synthetic β-defensin deduced from L. muta gene, GenBank KC117171] | >113 µM | >113 µM | 28.4 µM | >113 µM | – | – | – | – | – | – | – | – | –
QRRCRQRRGICRPRPCPPENFSLGRLDCQMGRMCCRRRFGK [DefbBm02, synthetic β-defensin deduced from B. mattogrossensis gene, GenBank KC117167] | 12.8 µM | 1.6 µM | 0.8 µM | 3.2 µM | – | – | – | – | – | – | – | – | –
QRRCHQKGGMCLPGPCPPGYDSLGQQDCRRGQKCCIKRFGK [DefbBju01, synthetic β-defensin deduced from B. jararacussu gene, GenBank KC117165] | >111 µM | >111 µM | >111 µM | >111 µM | – | – | – | – | – | – | – | – | –
N=C(N)NCCC[C@H](NC(=O)[C@H](Cc1c[nH]c2ccccc12)NC(=O)[C@H](CCCNC(=N)N)NC(=O)[C@@H](N)CO)C(=O)N[C@@H](Cc1c[nH]c2ccccc12)C(=O)N[C@@H](CCCCN)C(=O)N[C@@H](CO)C(=O)O [PS6] (H-SRWRWKS-OH) | – | – | – | – | >250 µM | >250 µM | >250 µM | >250 µM | 349 µM (≈ 351 µg/mL) | – | 43.8 µM (≈ 44 µg/mL) | 697 µM (≈ 701 µg/mL) | >697 µM
DPVTCLKSGAICHPVFCPRRYKQIGTCGLPGTKCCKKP [hBd02, synthetic human β-defensin, GenBank AF071216, reference compound] | >124 µM | >124 µM | 2 µM | 15.6 µM | – | – | – | – | – | – | – | – | –
QEECLQQGGFCRLIRCPFGYDSLEQQDCRKGQRCCIRKPRK [DefbBj01, synthetic β-defensin deduced from B. jararaca gene, GenBank KC117163] | >105 µM | >105 µM | 3.2 µM | >105 µM | – | – | – | – | – | – | – | – | –
QPQCRWLDGFCHSSPCPSGTTSIGQQDCLWYESCCIPRYEK [Crotasin, synthetic β-defensin deduced from C. durissus gene, GenBank AF250212] | >108 µM | >108 µM | >108 µM | >108 µM | – | – | – | – | – | – | – | – | –
